Reference: patent publication US5231091A, “Bis-arylphosphate ester antagonists of platelet activating factor” (priority 1992, dated 1993)
pIC50: −log10 of the molar value. Where a name gives a salt, the structure may show the parent alone.

What was measured:
PAF receptor [1] = target: T1, PAF receptor (Homo sapiens, UniProt P25105); assay: Inhibition of PAF-induced aggregation in human platelet rich plasma; type: cell-based; settings: PAF challenge 1E-6M, number of experiments in parentheses
T1 construct: Blood from healthy volunteers was collected; endogenous in cells; host or cells: human platelets (healthy volunteers)
T1 sequence (P25105 whole entry): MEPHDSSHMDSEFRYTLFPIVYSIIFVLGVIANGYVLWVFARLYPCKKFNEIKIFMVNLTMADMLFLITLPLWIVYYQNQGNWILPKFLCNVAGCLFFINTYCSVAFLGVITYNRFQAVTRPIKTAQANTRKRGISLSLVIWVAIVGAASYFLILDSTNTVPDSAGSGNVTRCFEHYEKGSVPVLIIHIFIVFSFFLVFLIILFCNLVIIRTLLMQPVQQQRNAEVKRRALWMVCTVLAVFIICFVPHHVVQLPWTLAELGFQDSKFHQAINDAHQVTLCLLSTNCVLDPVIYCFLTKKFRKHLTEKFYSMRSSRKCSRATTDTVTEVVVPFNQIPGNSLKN
Method: (§1) Test compounds were evaluated as PAF receptor antagonists in vitro by measuring inhibition of PAF (platelet activating factor) induced platelet aggregation. Platelet aggregation was measured by a modification of the method described in A. Wissner, et. al., J. Med. Chem., 27, 1174, 1984.
(§2) L-PAF was obtained from Calbiochem. A stock solution of 1-2 E-3M was prepared in 10% ethanol in water or 100% methanol and serial working dilutions were made using phosphate buffered saline (PBS). 1-2 E-3M stock solutions of test compounds were prepared in 100% methanol and serially diluted in PBS. All solutions were made up in plastic tubes, stored on ice and protected from heat and light. Solutions were prepared fresh or frozen at -20° C. and used within 48 hours.
(§3) Incubation mixtures consisted of 400 μl PRP, 50 μl of PBS diluent or test compound and 50 μl of PAF agonist. More specifically, 400 μl of PRP was stabilized in a cuvette for 1-2 minutes at 37° C. in the aggregometer to achieve a stable baseline, then 50 μl of PBS or test compound, was added and incubated for 5 minutes before addition of the challenge concentration of PAF (final concentration of 5E-8M or 1E-7M, as determined from the dose response curve for PAF for that experiment). Aggregation was monitored for 5 minutes. Samples containing test compound or diluent were run simultaneously for comparison. Test compounds were initially evaluated at a screening concentration of 1E-5M.
(§4) The recording equipment consisted of a dual channel Chronolog aggregometer connected to a dual channel 10 MV full scale deflection Omniscribe chart recorder (Houston Instruments). […] The bead suspension was used to set the 0% light transmission mark and clear water was used to set the 100% light transmission mark. These limits defined a full scale deflection. The aggregation traces were analyzed by a digitizing method (C. Kohler and B. Zoltan, J. Pharm. Methods, 12, 113, 1984) with x, y coordinate data stored in a computer file. A suitable program computed parameters of interest such as the magnitude of aggregation.
In some experiments, human PRP was used instead of rabbit PRP. Blood from healthy volunteers was collected in Vacutainers® containing the Na citrate diluent and processed in a manner similar to rabbit blood to obtain the PRP. For these experiments, the challenge concentration of PAF was 1E-6M.

[2] = system: endotoxin induced mortality; assay: Endotoxin induced shock and mortality in mice; type: in vivo, mouse (male Balb/c)
Description: The test compounds (PAF antagonists) were also efficacious when administered iv prior to a lethal iv injection of endotoxin (Table IX).

PAF receptor [3] = target: T2, PAF receptor (Oryctolagus cuniculus, UniProt G1TEI7); assay: Inhibition of PAF-induced aggregation in rabbit platelet rich plasma; type: cell-based, rabbit (male New Zealand White); settings: rabbit platelet rich plasma; PAF challenge 5E-8M; number of experiments in parentheses; read-out: IC50 inhibition of PAF-induced aggregation
T2 construct: endogenous in cells; host or cells: rabbit platelets (male New Zealand White)
T2 sequence (G1TEI7 1-342): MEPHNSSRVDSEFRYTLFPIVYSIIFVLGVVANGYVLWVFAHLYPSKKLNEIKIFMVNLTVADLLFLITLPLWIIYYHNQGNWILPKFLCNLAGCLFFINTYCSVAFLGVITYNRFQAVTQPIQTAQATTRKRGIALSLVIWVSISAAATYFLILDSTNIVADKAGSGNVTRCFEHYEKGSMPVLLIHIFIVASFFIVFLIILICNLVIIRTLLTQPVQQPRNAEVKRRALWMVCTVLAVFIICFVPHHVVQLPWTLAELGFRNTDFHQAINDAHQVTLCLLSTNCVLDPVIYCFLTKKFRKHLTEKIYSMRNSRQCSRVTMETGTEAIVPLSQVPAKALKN
Method: as §1
Approximately 120-240 ml of blood were collected by cardiac puncture from unanesthetized male New Zealand White rabbits (Whaley's Summit View Farms, Belvedere, N.J.) with the use of 3.2% sodium citrate anticoagulant (1 part of citrate/10 parts of blood). All syringes and pipets were plastic. The blood was gently mixed and immediately centrifuged at 800 rpm for 10-15 minutes at room temperature to recover the platelet rich plasma (PRP). Platelet poor plasma (PPP) was prepared by centrifuging PRP at 2800 rpm for 10 minutes at room temperature.
Dilutions (1:3000) of PRP in Isoton® diluent were made and platelet counts were determined on a Coulter Thrombocounter which was standardized with platelet reference standards (Interscience Platelet Control, Portland, Oreg.). PRP platelet counts were adjusted to approximately 400,000-500,000 platelets/μl by the addition of PPP.
as §2, §3, §4

PAF induced lethality = PAF induced lethality in mice; type: in vivo; settings: I.P. 10 mg/kg; corrected for control lethality
Method: PAF given I.V. to mice causes an immediate hypotensive shock leading to death in 1 hour or less. Compounds were given intraperitoneally or P.O. at various times before the PAF challenge. Animals alive after 2 hours were counted and the activity of test compounds expressed as % survival corrected for any control (saline treated) animals which survived the PAF challenge.

PAF receptor [4] = target: T2, PAF receptor; assay: Inhibition of PAF-induced aggregation in washed rabbit platelets; type: cell-based; settings: PAF challenge 5E-9M, number of experiments in parentheses
Method: as §1, §2
as §3, with “More” for “Incubation mixtures consisted of 400 μl PRP, 50 μl of PBS diluent or test compound and 50 μl of PAF agonist. More”, “400 μl of PRP was stabilized in a cuvette” left out, “1E-5M. […]” for “1E-5M.”

LPS induced hypotension = assay: Endotoxin (LPS) induced hypotension in rats; type: in vivo, rat (male Wistar); settings: anesthetized rats; 10 ug/kg intraarterially 5 minutes after LPS 15 mg/kg I.V.
Method: Bacterial cell wall lipopolysaccharide from E. coli strain 0111:B4 (Sigma #L-2630) was dissolved in saline at a concentration of 3.75 mg/ml and administered to rats at 15 mg/kg I.V. Test compounds were dissolved in saline at 1 mg/ml, diluted to 10 ug/ml, and injected intraarterially at 1 ml/kg (10 ug/kg). Male wistar strain rats were obtained from Charles River Labs and maintained according to ALAC standards. They were anesthetized with 30 mg/kg pentobarbital ip with supplementation as needed. The throat was opened, the left carotid artery was cannulated with PE-10 tubing and the trachea cannulated with 0.100 O.D. tubing. Ventilation was maintained by a Harvard Apparatus small animal pump at a rate sufficient to nearly abolish spontaneous respiration.

CCCCCCCCCCCCCCOc1cccc(OP(=O)([O-])Oc2cccc(C[n+]3csc(C)c3)c2)c1OC [3-[[3-[[Hydroxy[2-methoxy-3-(tetradecyloxy)phenoxy]-phosphinyl]oxy]phenyl]methyl]-5-methyl-thiazolium, hydroxide, inner salt]
pIC50 (PAF receptor [1]): 4.51 | 24 hour survival, treated ([2]; 40 mg/kg IP 2 hours prior to IP endotoxin): 13/50 | Survival after 24 hrs., treated ([2]; Table IX, 20 mg/kg iv prior to iv endotoxin, footnote prints IP, control 3/40): 14/40 | pIC50 (PAF receptor [3]): 5.60 | PAF induced lethality, % protection (PAF induced lethality): 17% | pIC50 (PAF receptor [4]): 8.26 | % reversal of LPS induced hypotension (fall in mean arterial pressure) (LPS induced hypotension): 84%
